Test results: PMC8507198 (Poultry Science, 2021)

Experiments:
chicken NPSR1 [1] = assay: pGL3-NFAT-RE-luciferase reporter assay; type: cell-based; details: 2-APB (100 μM) added 0.5 h before cNPS20 (10 nM, 6 h); CHO cells expressing cNPSR1; P<0.01 vs. peptide treatment; Figure 4D
chicken NPSR1 [2] = assay: pGL3-CRE-luciferase reporter assay; type: cell-based; details: H89 (10 μM) added 0.5 h before cNPS20 (10 nM, 6 h); CHO cells expressing cNPSR1; P<0.01 vs. peptide treatment; Figure 4E
rats [3] = details: ref Smith et al., 2006; cited from earlier work
chickens = details: ref Smith et al., 2006; cited from earlier work
rats [4] = details: administration of NPS, ref Zhang et al., 2014; cited from earlier work
rodents = details: central administration, cited from earlier work

NCCOB(c1ccccc1)c1ccccc1 [2-APB]
Effect on cNPS20-induced NFAT-RE luciferase activity (chicken NPSR1 [1]): could block cNPS20-induced luciferase activity of CHO cells expressing cNPSR1

O=S(=O)(NCCNC/C=C/c1ccc(Br)cc1)c1cccc2cnccc12 [H89]
Effect on cNPS20-induced CRE luciferase activity (chicken NPSR1 [2]): significantly inhibited

neuropeptide S (SFRNGVGSGIKKTSFRRAKS; printed: Ser-Phe-Arg-Asn-Gly- Val-Gly-Ser-Gly-Ile-Lys-Lys-Thr-Ser-Phe-Arg-Arg-Ala-Lys-Ser) [NPS]
ACTH and corticosterone secretion (hypothalamic-pituitary-adrenal axis activity) (rats [3]): stimulation of adrenocorticotropic hormone (ACTH) and corticosterone secretion in rats | Hypothalamus-pituitary-adrenal axis and food intake, rats (rats [3]): stimulate the hypothalamus-pituitary-adrenal axis and inhibit food intake in rats and chickens | Hypothalamus-pituitary-adrenal axis and food intake, chickens (chickens): stimulate the hypothalamus-pituitary-adrenal axis and inhibit food intake in rats and chickens | Anxiolytic and antinociceptive effects (rats [4]): anxiolytic, and antinociceptive effects in rats | Length of ketamine-induced anesthesia (rodents; ref Kushikata et al., 2011): decreased the length of ketamine-induced anesthesia | Memory (rodents; ref Okamura et al., 2011): enhanced memory | Anxiety-related effect (rodents; ref Xu et al., 2004): anxiolytic effects
